Data from patent US20140212437A1, “METHODS AND COMPOSITIONS FOR TREATING ATRIAL FIBRILLATION” (THE REGENTS OF THE UNIVERSITY OF MICHIGAN, priority 2013, published 2014).
Entries after “also recorded” stand apart in the source; their conditions may differ.

Assays:
[1] = test system: adult rat ventricular myocytes; assay: Whole-cell patch clamp, sodium current (INa); assay type: cell-based
Protocol: (§1) Cell Treatment: Isolated adult rat cardiac myocytes were treated with FCM or TGF-β1 (R and D systems, Minneapolis, Minn.) for 3 days in serum free medium. For PI3K pathway inhibition cells were pretreated (30 min) with 10 μM […] (Cayman Chemicals, Ann Arbor) before the treatment with TGF-β1.
Patch-clamp experiments: Whole-cell ionic currents were recorded from adult rat ventricular myocytes. All recordings were conducted at room temperature. Sodium current recordings were conducted in a low-sodium extracellular solution containing (in mM): NaCl, 10; MgCl2, 1; CaCl2, 1.8; CdCl2, 0.1; HEPES, 20; CsCl, 127.5; glucose, 11. The pipette solution contained (in mM): NaCl, 5; CsF, 135; EGTA, 10; MgATP, 5; HEPES, 5. To characterize the voltage dependence of the peak INa, single cells were held at −120 mV, and 200 msec voltage steps were applied from −90 to +30 mV in 5 mV increments. The interval between voltage steps was 3 sec. Voltage-dependence of inactivation was assessed by holding cells at various potentials from −160 to −40 mV followed by a 30 msec test pulse to −40 mV to elicit INa. Recovery from inactivation was studied by holding cells at −120 mV and applying two 20-msec test pulses (S1, S2) to −40 mV separated by increments of 2 msec to a maximum S1-S2 interval of 80 msec. The S1-S1 interval was kept constant at 3 sec.
(§2) In all experiments, cells were exposed to one of the following for 72 hrs prior to the experiment: control medium, FCM or TGF-β1.

[2] = test system: adult rat ventricular myocytes; assay: Action potential recording, current clamp; assay type: cell-based
Protocol: as §1
Action potentials were recorded from individual myocytes using the current clamp mode of the MultiClamp 700B amplifier after gigaseal formation and patch break. Stimulus pulses (1-2 ms duration) were generated using a World Precision Instruments DS8000 stimulator (Sarasota, Fla.). The bath solution contained (in mM): NaCl: 148, KCl: 5.4, MgCl2: 1, CaCl2 1.8, NaH2PO4: 0.4, HEPES: 15, Glucose: 5.5, pH 7.4 with NaOH. The pipette solution contained (in mM), KCl: 20, K-aspartate: 90, KH2PO4: 10, EDTA: 5.0. K2ATP: 1.9, HEPES: 5.0 and Mg2+ 7.9; pH 7.2 (KOH)

FOXO1 = assay: Western blot of FOXO1 phosphorylation; assay type: cell-based, rat
Protocol: as §1
Western blotting: Control and treated cardiac myocytes were washed in cold PBS, lysed directly in the modified loading buffer (25 mmol/l Tris.HCl; 150 mmol/l NaCl; 1 mmol/l EDTA; 4 mmol/l NaF; 2 mmol/l Sodium ortho-vanadate; 1% Triton X-100, protease inhibitor, 5% glycerol, 1% SDS, 0.05% bromophenol blue. 5% β mercaptoethanol) and sonicated. The lysate (20 μl) were then subjected SDS-PAGE as described earlier. The blots were incubated with rabbit pFOXO1 antibody, 1:500 (Cell Signaling) or rabbit GAPDH antibody, 1:5000 (Sigma-Aldrich, St. Louis, Mo.).

SCN5A = assay: mRNA analysis by qPCR, SCN5A; assay type: cell-based, rat
Protocol: as §1
(§3) mRNA analysis by quantitative PCR (qPCR): Cardiac myocytes were washed with PBS and lysed with lysis buffer. RNA was isolated from the myocardial tissue using RNAeasy kit from Qiagen (Qiagen, Valencia, Calif.) according to the manufacturer's instructions. Isolated RNA from these samples was treated with DNase for 15 min at room temperature (Qiagen, Valencia. CA). 100 ng of DNA-free total poly-A tail RNA (mRNA) was first subjected to synthesis of cDNA using Oligo dT primers applying SuperScript III First-Strand Synthesis System from Invitrogen (Invitrogen, Carlsbad, Calif.) according to the manufacturer's instructions. cDNA from 20 ng of total RNA was then subjected to real-time RT-PCR using predesigned taqman probe primers specific for rat Scn5a (Rn00565502), Kcnip2 (Kchip2; Rn01411451) and kcnd2 (Rn01456260) (Applied Biosystems, California). No-template controls and no-RT controls were run during each experiment to detect any RNA and/or DNA contamination. Results are expressed as fold expression of gene of interest normalized to GAPDH expression in the sample.

KCND2 = assay: mRNA analysis by qPCR, KCND2; assay type: cell-based, rat; conditions: 1 ng/ml, 72 hr
Protocol: as §3

KCNIP2 = assay: mRNA analysis by qPCR, KCNIP2; assay type: cell-based, rat; conditions: 1 ng/ml, 72 hr
Protocol: as §3

[3] = test system: adult rat ventricular myocytes; assay: Whole-cell patch clamp, transient outward potassium current (Ito); assay type: cell-based; conditions: 72-hr
Protocol: as §1
The extracellular solution for transient outward potassium current (Ito) contained (in mM): 136 NaCl, 4 KCl, 1.8 CaCl2, 2 MgCl2, 10 HEPES, 0.03 tetrodotoxin. 0.01 nifedipine, and 14 glucose, pH 7.35. The pipette solution contained (in mM): 135 KCl, 1 MgCl2, 10 EGTA, 10 HEPES, 5 glucose, pH 7.2. Voltage-gated outward K+ currents were evoked during 5-s depolarizing voltage steps to potentials between −40 and +60 mV from a holding potential of −70 mV; voltage steps were presented in 10 mV increments at 15 s intervals
as §2

[4] = test system: adult sheep atrial fibroblasts; assay: Cell proliferation, WST reagent; assay type: cell-based; conditions: 1-30 μg/ml, 24 hours, SFM
Protocol: (§4) Wound healing experiments were performed to investigate if exogenous Gal-3 can increase myofibroblast migration in vitro (FIG. 3). Adult sheep atrial fibroblasts were cultured in 96-well plates until confluent. Before serum starvation, cells were stained with cell tracker dye and DAPI. A wound was created by scraping a semi-confluent monolayer of cells with a 1 ml pipette tip. Thereafter, cells underwent serum starvation in DMEM with […] for 6 hrs. Comparisons were made between untreated and Gal-3 treated (1 μg/ml or 10 μg ml) cells. The wound was imaged at 4 different locations at 3 different time points (days 0, 1 and 2). The size of the wound was quantified using the NIS element program by Nikon. […] Next, to investigate the effects of Gal-3 on myofibroblast proliferation, adult sheep atrial fibroblasts were treated with recombinant human Gal-3 (EMD chemicals, USA) for 24 hours in the presence of SFM. FM was included as a positive control. Cell proliferation was measured using cell proliferation reagent WST (Roche Diagnostics, USA). […] Such concentrations are in the same range used previously (Sharma et al., Circulation. 2004; 110:3121-3128) to investigate Gal-3 induced fibroblast proliferation in the cardiomyopathic heart. […] In addition, the results strongly support the therapeutic value of Gal-3 inhibitors.

[5] = test system: adult sheep atrial fibroblasts; assay: Wound healing (in vitro migration) assay; assay type: cell-based; conditions: Gal-3 vs untreated cells, days 0-2
Protocol: as §4

Question: What does the source list for TGF-β1?
Answer: maximum INa increase ([1]; 1 ng/ml, 72 hours, also seen at 10 ng/ml): about 40%; more inward current compared to control medium ([1]; 1 ng/ml, at −40V): about 40%; peak INa density compared to control ([1]; 1 ng/ml, step voltages between −60 mV and −30 mV, p<0.05-0.01): significantly increased the peak INa density; EC50 for peak inward INa density ([1]; 72 hours, 0.001-1.0 ng/ml): 0.007 ng/mL; voltage dependence of activation (m∞) and inactivation (h∞) ([1]; 72 hr treatment or viral overexpression): neither the m∞ nor the h∞ curve was modified; action potential duration (APD) ([2]; 10 ng/ml, 72 hours): basic cycle length (BCL) dependent action potential duration (APD) prolongation; APD30 relative to control ([2]; 10 ng/ml, BCL of 1000 ms): > 3.5 times; APD30 ([2]; 10 ng/ml, BCL of 1000 ms, control 8.1±3.6): 29.1 ± 5.6 ms; action potential duration / early afterdepolarizations ([2]; 50 ng/ml): APD was so prolonged that some cells early afterdepolarizations (EADs); increase in phosphorylated FOXO1 compared to control (FOXO1; 1 ng/ml): 67%; exposure time of peak FOXO1 phosphorylation (FOXO1; 1 ng/ml, phosphorylation seen at 5 min): 15 min; SCN5A transcript levels, increase (SCN5A; 1 ng/ml, 72 hr): 1.73±0.26 fold; decrease of KCND2 expression with respect to control (KCND2): 50.6%; reduction of mRNA levels of KCNIP2 (KCNIP2): 77%; peak Ito ([3]; 1 ng/ml): significantly reduced the peak Ito but to a much modest level; Ito current density, % of control levels ([3]; 10 ng/ml, at 60 mV): 57%; reduction of Ito current density ([3]; 10 ng/ml, at +20 mV): 42%; Ito current density at 60 mV ([3]; 10 ng/ml, control 22.2±1.2): 12.6±0.98; Ito compared to control ([3]; 10 ng/ml, voltages between +20 mV and +60 mV): significantly lower than control

Question: For “Gal-3: recombinant human Gal-3 (EMD chemicals, USA) added exogenously to sheep atrial fibroblasts”, which “number of adult sheep atrial myofibroblasts (proliferation)” value [4] is on record?
Answer: increased the number of adult sheep atrial myofibroblasts in a concentration-dependent manner; also recorded: increases proliferation

Question: And the “rate of migration / wound healing” value [5]?
Answer: significantly increased the rate of migration and promoted wound healing; also recorded: increases the rate of wound healing

Question: With O=c1cc(N2CCOCC2)oc2c(-c3ccccc3)cccc12 [LY 29004, reference compound] as the compound, how does the “phosphorylation of FOXO1 in TGF-β1 treated cells” value (FOXO1; pretreated 30 min with 10 μM) read?
Answer: inhibited

Question: And the “TGF-β1-induced increase in SCN5A transcription” value (SCN5A; pretreated 30 min with 10 μM)?
Answer: failed to show increased SCN5A transcription
